Read-outs that look alike come from different tables or passages of the source.
Tests used:
[1] = target: AM2 V27A (valine→alanine mutation at residue 27 in the M2 protein) (Influenza A virus, UniProt P0DOF5, V27A); assay type: cell-based, influenza virus A/Udorn/72
[2] = target: AM2 S31N (serine→asparagine mutation at residue 31 in the M2 protein) (Influenza A virus, UniProt P0DOF5, S31N); assay type: cell-based, influenza virus A/Udorn/72

Compound | V27A OOcyte Inhibition at 100 uM (%) [1] | S31N OOcyte Inhibition at 100 uM (%) [2] | V27A OOcyte Inhibition at 100 uM (%) ([1]; pH 5.5) | S31N OOcyte Inhibition at 100 uM (%) ([2]; pH 5.5)
c1ccc2cc(COc3ccc(CNC45CC6CC(CC(C6)C4)C5)cc3)ccc2c1 [Example 38a, N-(4-(naphthalen-2-ylmethoxy)benzyl)adamantan-1-amine] | B (key: (A)=31-95%; (B)=0-30%) | B (key: (A)=31-95%; (B)=0-30%) | – | –
Oc1ccc(CN2CC3CC4CC(C3)CC2C4)c(O)c1 [Example 116, 4-(4-Aza-tricyclo[4.3.1.13,8]undec-4-ylmethyl)-benzene-1,3-diol] | – | – | A (key: (A)=31-95%; (B)=0-30%) | B (key: (A)=31-95%; (B)=0-30%)
O=[N+]([O-])c1ccc(CNC23CC4CC(CC(C4)C2)C3)cc1 [Example 19, Adamantan-1-yl-(4-nitro-benzyl)-amine] | – | – | B (key: (A)=31-95%; (B)=0-30%) | B (key: (A)=31-95%; (B)=0-30%)
CC(NCc1ccc(O)cc1)C12CC3CC(CC(C3)C1)C2 (stereo not shown) [Example 4, 4-[(1-Adamantan-1-yl-ethylamino)-methyl]-phenol] | – | – | B (key: (A)=31-95%; (B)=0-30%) | B (key: (A)=31-95%; (B)=0-30%)
c1cc(-c2nnn[nH]2)ccc1CNC12CC3CC(CC(C3)C1)C2 [Example 15, Adamantan-1-yl-[4-(1H-tetrazol-5-yl)-benzyl]amine] | – | – | B (key: (A)=31-95%; (B)=0-30%) | B (key: (A)=31-95%; (B)=0-30%)
COc1ccsc1CNC12CC3CC(CC(C3)C1)C2 [Example 74a, Adamantan-1-yl-(3-methoxy-thiophen-2-ylmethyl)-amine] | B (key: (A)=31-95%; (B)=0-30%) | A (key: (A)=31-95%; (B)=0-30%) | – | –
c1ccn2c(CNC34CC5CC(CC(C5)C3)C4)cnc2c1 [Example 203a, Adamantan-1-yl-imidazo[1,2-a]pyridin-3-ylmethyl-amine] | B (key: (A)=31-95%; (B)=0-30%) | B (key: (A)=31-95%; (B)=0-30%) | – | –
c1c(CNC23CC4CC(CC(C4)C2)C3)sc2c1CSC2 [Example 84, Adamantan-1-yl-(4,6-dihydro-thieno[3,4-b]thiophen-2-ylmethyl)-amine] | – | – | B (key: (A)=31-95%; (B)=0-30%) | A (key: (A)=31-95%; (B)=0-30%)
c1csc(-c2csc(CNC34CC5CC(CC(C5)C3)C4)c2)c1 [Example 140a, Adamantan-1-yl-[2,3′]bithiophenyl-5′-ylmethyl-amine] | A (key: (A)=31-95%; (B)=0-30%) | A (key: (A)=31-95%; (B)=0-30%) | – | –
c1cc(-c2csc(CNC34CC5CC(CC(C5)C3)C4)c2)cs1 [Example 152a, N-([3,3′-bithiophen]-5-ylmethyl)adamantan-1-amine] | A (key: (A)=31-95%; (B)=0-30%) | B (key: (A)=31-95%; (B)=0-30%) | – | –
CC(C)(C)OC(=O)Nc1ccc(CNC23CC4CC(CC(C4)C2)C3)cc1 [Example 12, [4-(Adamantan-1-ylaminomethyl)-phenyl]carbamic acid tert-butyl ester] | – | – | B (key: (A)=31-95%; (B)=0-30%) | B (key: (A)=31-95%; (B)=0-30%)
OCC(Cc1cnc[nH]1)NCC12CC3CC(CC(C3)C1)C2 (stereo not shown) [Example 2, 2-[(adamantan-1-ylmethyl)-amino]-3-(3H-imidazol-4-yl)-propan-1-ol] | – | – | B (key: (A)=31-95%; (B)=0-30%) | B (key: (A)=31-95%; (B)=0-30%)
Oc1ccc(CNC23CC4CC(CC(C4)C2)C3)cc1O [Example 45, 4-(Adamantan-1-ylaminomethyl)-benzene-1,2-diol] | – | – | A (key: (A)=31-95%; (B)=0-30%) | B (key: (A)=31-95%; (B)=0-30%)
O=C(Oc1ccc(CNC23CC4CC(CC(C4)C2)C3)cc1)c1cccs1 [Example 37, Thiophene-2-carboxylic acid 4-(adamantan-1-ylaminomethyl)-phenyl ester] | – | – | B (key: (A)=31-95%; (B)=0-30%) | A (key: (A)=31-95%; (B)=0-30%)
c1ccc(-c2cc(CNC34CC5CC(CC(C5)C3)C4)no2)cc1 [Example 116a, N-((5-phenylisoxazol-3-yl)methyl)adamantan-1-amine] | B (key: (A)=31-95%; (B)=0-30%) | A (key: (A)=31-95%; (B)=0-30%) | – | –
Oc1ccc(/C=N/C23CC4CC(CC(C4)C2)C3)c(O)c1 [Example 7] | – | – | A (key: (A)=31-95%; (B)=0-30%) | B (key: (A)=31-95%; (B)=0-30%)
c1coc(-c2ccc(CNC34CC5CC(CC(C5)C3)C4)cc2)c1 [Example 31a, N-(4-(Furan-2-yl)benzyl)adamantan-1-amine] | B (key: (A)=31-95%; (B)=0-30%) | A (key: (A)=31-95%; (B)=0-30%) | – | –
c1cc2cc(CNC34CC5CC(CC(C5)C3)C4)sc2o1 [Example 83, Adamantan-1-yl-thieno[2,3-b]furan-5-ylmethyl-amine] | – | – | B (key: (A)=31-95%; (B)=0-30%) | A (key: (A)=31-95%; (B)=0-30%)
c1csc(-c2ccc(CNC34CC5CC(CC(C5)C3)C4)cc2)c1 [Example 29a, N-(4-(Thiophen-2-yl)benzyl)adamantan-1-amine methanesulfonate] | B (key: (A)=31-95%; (B)=0-30%) | A (key: (A)=31-95%; (B)=0-30%) | – | –
c1ccc2[nH]c(CNC34CC5CC(CC(C5)C3)C4)cc2c1 [Example 93, Adamantan-1-yl-(1H-indol-2-ylmethyl)-amine] | – | – | B (key: (A)=31-95%; (B)=0-30%) | A (key: (A)=31-95%; (B)=0-30%)
COc1cc(O)cc(OC)c1CNC12CC3CC(CC(C3)C1)C2 [Example 66, 4-(Adamantan-1-ylaminomethyl)-3,5-dimethoxy-phenol] | – | – | B (key: (A)=31-95%; (B)=0-30%) | B (key: (A)=31-95%; (B)=0-30%)
Oc1ccc(CNC2C3CC4CC(C3)CC2C4)cc1O (stereo not shown) [Example 101, 4-(Adamantan-2-ylaminomethyl)-benzene-1,2-diol] | – | – | B (key: (A)=31-95%; (B)=0-30%) | B (key: (A)=31-95%; (B)=0-30%)
Brc1ccc(-c2ccc(CNC34CC5CC(CC(C5)C3)C4)s2)s1 [Example 159a, N-((5′-bromo-[2,2′-bithiophen]-5-yl)methyl)adamantan-1-amine] | B (key: (A)=31-95%; (B)=0-30%) | A (key: (A)=31-95%; (B)=0-30%) | – | –
c1csc(-c2ncc(CNC34CC5CC(CC(C5)C3)C4)s2)c1 [Example 144a, N-((2-(thiophen-2-yl)thiazol-5-yl)methyl)adamantan-1-amine] | B (key: (A)=31-95%; (B)=0-30%) | A (key: (A)=31-95%; (B)=0-30%) | – | –
c1ccc2nc(CNC34CC5CC(CC(C5)C3)C4)ccc2c1 [Example 98, Adamantan-1-yl-quinolin-2-ylmethyl-amine] | – | – | B (key: (A)=31-95%; (B)=0-30%) | A (key: (A)=31-95%; (B)=0-30%)
Oc1ccc(CNC23CC4CCC(CC(C4)C2)C3)c(O)c1 [Example 110, 4-(Tricyclo[4.3.1.13,8]undec-1-ylaminomethyl)-benzene-1,3-diol] | – | – | A (key: (A)=31-95%; (B)=0-30%) | A (key: (A)=31-95%; (B)=0-30%)

— patent publication US9884832B2 (priority 2011, dated 2018)
